# Reference: patent US20020035061A1, “COMPOSITIONS AND METHODS FOR TREATING INFECTIONS USING CATIONIC PEPTIDES ALONE OR IN COMBINATION WITH ANTIBIOTICS” (priority 1996, published 2002)
# System: bacterial isolates
# Test: microbe, parasite or virus in culture
# Assay type: cell-based
# Conditions: for MBI 26 + Teicoplanin: in combination with Teicoplanin
sequence,measurement,setting,value
KWKSFIKKLTSAAKKVVTTAKPLISS [MBI 26],Peptide MIC Alone,"1. Amikacin, A. baumannii ABI001",8 µg/mL
same,Peptide MIC Alone,"1. Amikacin, A. baumannii ABI003",8 µg/mL
same,Peptide MIC Alone,"1. Amikacin, S. maltophilia SMA021",32 µg/mL
same,Peptide MIC Alone,"1. Amikacin, S. maltophilia SMA037",>128 µg/mL
same,Peptide MIC Alone,"2. Ceftriaxone, A. baumannii ABI002",8 µg/mL
same,Peptide MIC Alone,"2. Ceftriaxone, A. baumannii ABI005",2 µg/mL
same,Peptide MIC Alone,"2. Ceftriaxone, B. cepacia BC003",>128 µg/mL
same,Peptide MIC Alone,"2. Ceftriaxone, E. cloacae ECL014",8 µg/mL
same,Peptide MIC Alone,"2. Ceftriaxone, E. cloacae ECL015",32 µg/mL
same,Peptide MIC Alone,"2. Ceftriaxone, K. pneumoniae KP003",16 µg/mL
same,Peptide MIC Alone,"2. Ceftriaxone, P. aeruginosa PA008",128 µg/mL
same,Peptide MIC Alone,"2. Ceftriaxone, P. aeruginosa PA024",128 µg/mL
same,Peptide MIC Alone,"2. Ceftriaxone, S. aureus SA025 MRSA",1 µg/mL
same,Peptide MIC Alone,"2. Ceftriaxone, S. epidermidis SE007",32 µg/mL
same,Peptide MIC Alone,"2. Ceftriaxone, S. epidermidis SE012",64 µg/mL
same,Peptide MIC Alone,"2. Ceftriaxone, S. maltophilia SMA019",4 µg/mL
same,Peptide MIC Alone,"2. Ceftriaxone, S. maltophilia SMA020",4 µg/mL
same,Peptide MIC Alone,"3. Ciprofloxacin, A. calcoaceticus 1",>64 µg/mL
same,Peptide MIC Alone,"3. Ciprofloxacin, A. calcoaceticus 6",>32 µg/mL
same,Peptide MIC Alone,"3. Ciprofloxacin, E. cloacae 13",>128 µg/mL
same,Peptide MIC Alone,"3. Ciprofloxacin, E. cloacae 15",>32 µg/mL
same,Peptide MIC Alone,"3. Ciprofloxacin, E. cloacae 16",>32 µg/mL
same,Peptide MIC Alone,"3. Ciprofloxacin, P. aeruginosa 23",>32 µg/mL
same,Peptide MIC Alone,"3. Ciprofloxacin, P. aeruginosa 24",>32 µg/mL
same,Peptide MIC Alone,"3. Ciprofloxacin, P. aeruginosa PA41",128 µg/mL
same,Peptide MIC Alone,"3. Ciprofloxacin, P. aeruginosa PA77",128 µg/mL
same,Peptide MIC Alone,"3. Ciprofloxacin, S. aureus SA11",128 µg/mL
same,Peptide MIC Alone,"3. Ciprofloxacin, S. maltophilia 34",>32 µg/mL
same,Peptide MIC Alone,"3. Ciprofloxacin, S. maltophilia 35",>32 µg/mL
same,Peptide MIC Alone,"4. Gentamicin, A. baumannii ABI001",8 µg/mL
same,Peptide MIC Alone,"4. Gentamicin, A. baumannii ABI002",8 µg/mL
same,Peptide MIC Alone,"4. Gentamicin, P. aeruginosa PA041",64 µg/mL
same,Peptide MIC Alone,"4. Gentamicin, S. maltophilia SMA016",>128 µg/mL
same,Peptide MIC Alone,"4. Gentamicin, S. maltophilia SMA017",16 µg/mL
same,Amikacin MIC + Peptide,A. baumannii ABI001,8 µg/mL
same,Gentamicin MIC + Peptide,A. baumannii ABI001,16 µg/mL
same,Peptide MIC + Amikacin,A. baumannii ABI001,2 µg/mL
same,Peptide MIC + Gentamicin,A. baumannii ABI001,2 µg/mL
same,Ceftriaxone MIC + Peptide,A. baumannii ABI002,16 µg/mL
same,Gentamicin MIC + Peptide,A. baumannii ABI002,0.5 µg/mL
same,Peptide MIC + Ceftriaxone,A. baumannii ABI002,2 µg/mL
same,Peptide MIC + Gentamicin,A. baumannii ABI002,4 µg/mL
same,Amikacin MIC + Peptide,A. baumannii ABI003,2 µg/mL
same,Peptide MIC + Amikacin,A. baumannii ABI003,2 µg/mL
same,Ceftriaxone MIC + Peptide,A. baumannii ABI005,8 µg/mL
same,Peptide MIC + Ceftriaxone,A. baumannii ABI005,0.125 µg/mL
same,Ciprofloxacin MIC + Peptide,A. calcoaceticus 1,0.25 µg/mL
same,Peptide MIC + Ciprofloxacin,A. calcoaceticus 1,1 µg/mL
same,Ciprofloxacin MIC + Peptide,A. calcoaceticus 6,0.25 µg/mL
same,Peptide MIC + Ciprofloxacin,A. calcoaceticus 6,16 µg/mL
same,Peptide MIC + Piperacillin,A. calcoaceticus 7,8 µg/mL
same,Piperacillin MIC + Peptide,A. calcoaceticus 7,4 µg/mL
same,Peptide MIC Alone,"A. calcoaceticus 7, Piperacillin section",>32 µg/mL
same,Peptide MIC + Piperacillin,A. calcoaceticus 8,8 µg/mL
same,Piperacillin MIC + Peptide,A. calcoaceticus 8,4 µg/mL
same,Peptide MIC Alone,"A. calcoaceticus 8, Piperacillin section",>32 µg/mL
same,Ceftriaxone MIC + Peptide,B. cepacia BC003,8 µg/mL
same,Peptide MIC + Ceftriaxone,B. cepacia BC003,0.125 µg/mL
same,Ciprofloxacin MIC + Peptide,E. cloacae 13,0.25 µg/mL
same,Peptide MIC + Ciprofloxacin,E. cloacae 13,4 µg/mL
same,Peptide MIC + Piperacillin,E. cloacae 13,8 µg/mL
same,Piperacillin MIC + Peptide,E. cloacae 13,4 µg/mL
same,Peptide MIC Alone,"E. cloacae 13, Piperacillin section",>32 µg/mL
same,Ciprofloxacin MIC + Peptide,E. cloacae 15,0.25 µg/mL
same,Peptide MIC + Ciprofloxacin,E. cloacae 15,8 µg/mL
same,Ciprofloxacin MIC + Peptide,E. cloacae 16,0.25 µg/mL
same,Peptide MIC + Ciprofloxacin,E. cloacae 16,16 µg/mL
same,Ceftriaxone MIC + Peptide,E. cloacae ECL014,32 µg/mL
same,Peptide MIC + Ceftriaxone,E. cloacae ECL014,2 µg/mL
same,Ceftriaxone MIC + Peptide,E. cloacae ECL015,4 µg/mL
same,Peptide MIC + Ceftriaxone,E. cloacae ECL015,4 µg/mL
same,Mupirocin MIC + Peptide,E. coli ECO5,30 µg/mL
same,Peptide MIC + Mupirocin,E. coli ECO5,1 µg/mL
same,Peptide MIC Alone,"E. coli ECO5, Mupirocin section",8 µg/mL
same,Mupirocin MIC + Peptide,E. coli SBECO2,30 µg/mL
same,Peptide MIC + Mupirocin,E. coli SBECO2,1 µg/mL
same,Peptide MIC Alone,"E. coli SBECO2, Mupirocin section",8 µg/mL
same,MBI 26 Alone,E. faecalis 97040 VanB,64 µg/mL
same,MBI 26 + Teicoplanin,E. faecalis 97040 VanB,8 µg/mL
same,MBI 26 Alone,E. faecalis 97041 VanB,64 µg/mL
same,MBI 26 + Teicoplanin,E. faecalis 97041 VanB,8 µg/mL
same,MBI 26 Alone,E. faecalis 97042 VanB,64 µg/mL
same,MBI 26 + Teicoplanin,E. faecalis 97042 VanB,8 µg/mL
same,MBI 26 Alone,E. faecalis 97043 VanB,64 µg/mL
same,MBI 26 + Teicoplanin,E. faecalis 97043 VanB,8 µg/mL
same,Peptide MIC + Vancomycin,E. faecalis EFS005,16 µg/mL
same,Peptide MIC Alone,E. faecalis EFS005,>128 µg/mL
same,Vancomycin MIC + Peptide,E. faecalis EFS005,4 µg/mL
same,Peptide MIC + Vancomycin,E. faecalis EFS012,1 µg/mL
same,Peptide MIC Alone,E. faecalis EFS012,16 µg/mL
same,Vancomycin MIC + Peptide,E. faecalis EFS012,2 µg/mL
same,Peptide MIC + Vancomycin,E. faecalis EFS013,1 µg/mL
same,Peptide MIC Alone,E. faecalis EFS013,16 µg/mL
same,Vancomycin MIC + Peptide,E. faecalis EFS013,2 µg/mL
same,MBI 26 Alone,E. faecium 97001 VanB,64 µg/mL
same,MBI 26 + Teicoplanin,E. faecium 97001 VanB,4 µg/mL
same,MBI 26 Alone,E. faecium 97002 VanB,64 µg/mL
same,MBI 26 + Teicoplanin,E. faecium 97002 VanB,1 µg/mL
same,MBI 26 Alone,E. faecium 97003 VanB,64 µg/mL
same,MBI 26 + Teicoplanin,E. faecium 97003 VanB,1 µg/mL
same,MBI 26 Alone,E. faecium 97005 VanB,64 µg/mL
same,MBI 26 + Teicoplanin,E. faecium 97005 VanB,2 µg/mL
same,MBI 26 Alone,E. faecium 97006 VanB,64 µg/mL
same,MBI 26 + Teicoplanin,E. faecium 97006 VanB,4 µg/mL
same,MBI 26 Alone,E. faecium 97007 VanB,64 µg/mL
same,MBI 26 + Teicoplanin,E. faecium 97007 VanB,1 µg/mL
same,MBI 26 Alone,E. faecium 97008 VanB,64 µg/mL
same,MBI 26 + Teicoplanin,E. faecium 97008 VanB,4 µg/mL
same,MBI 26 Alone,E. faecium 97009 VanB,32 µg/mL
same,MBI 26 + Teicoplanin,E. faecium 97009 VanB,1 µg/mL
same,MBI 26 Alone,E. faecium 97010 VanB,64 µg/mL
same,MBI 26 + Teicoplanin,E. faecium 97010 VanB,4 µg/mL
same,MBI 26 Alone,E. faecium 97011 VanB,64 µg/mL
same,MBI 26 + Teicoplanin,E. faecium 97011 VanB,4 µg/mL
same,MBI 26 Alone,E. faecium 97012 VanB,64 µg/mL
same,MBI 26 + Teicoplanin,E. faecium 97012 VanB,4 µg/mL
same,MBI 26 Alone,E. faecium 97013 VanB,64 µg/mL
same,MBI 26 + Teicoplanin,E. faecium 97013 VanB,8 µg/mL
same,MBI 26 Alone,E. faecium 97014 VanB,64 µg/mL
same,MBI 26 + Teicoplanin,E. faecium 97014 VanB,4 µg/mL
same,MBI 26 Alone,E. faecium 97015 VanB,64 µg/mL
same,MBI 26 + Teicoplanin,E. faecium 97015 VanB,4 µg/mL
same,MBI 26 Alone,E. faecium 97016 VanB,64 µg/mL
same,MBI 26 + Teicoplanin,E. faecium 97016 VanB,4 µg/mL
same,Peptide MIC + Vancomycin,E. faecium EFM010,8 µg/mL
same,Peptide MIC Alone,E. faecium EFM010,32 µg/mL
same,Vancomycin MIC + Peptide,E. faecium EFM010,2 µg/mL
same,Peptide MIC + Vancomycin,E. faecium EFM011,8 µg/mL
same,Peptide MIC Alone,E. faecium EFM011,32 µg/mL
same,Vancomycin MIC + Peptide,E. faecium EFM011,2 µg/mL
same,Peptide MIC + Vancomycin,E. faecium EFM012,16 µg/mL
same,Peptide MIC Alone,E. faecium EFM012,64 µg/mL
same,Vancomycin MIC + Peptide,E. faecium EFM012,2 µg/mL
same,Peptide MIC + Vancomycin,E. faecium EFM014,8 µg/mL
same,Peptide MIC Alone,E. faecium EFM014,32 µg/mL
same,Vancomycin MIC + Peptide,E. faecium EFM014,4 µg/mL
same,Peptide MIC + Vancomycin,E. faecium EFM016,4 µg/mL
same,Peptide MIC Alone,E. faecium EFM016,8 µg/mL
same,Vancomycin MIC + Peptide,E. faecium EFM016,1 µg/mL
same,Peptide MIC + Piperacillin,H. influenzae 1,8 µg/mL
same,Piperacillin MIC + Peptide,H. influenzae 1,32 µg/mL
same,Peptide MIC Alone,"H. influenzae 1, Piperacillin section",>128 µg/mL
same,Peptide MIC + Piperacillin,H. influenzae 2,2 µg/mL
same,Piperacillin MIC + Peptide,H. influenzae 2,64 µg/mL
same,Peptide MIC Alone,"H. influenzae 2, Piperacillin section",>128 µg/mL
same,Ceftriaxone MIC + Peptide,K. pneumoniae KP003,4 µg/mL
same,Peptide MIC + Ceftriaxone,K. pneumoniae KP003,1 µg/mL
same,Peptide MIC + Piperacillin,P. aeruginosa 7,32 µg/mL
same,Piperacillin MIC + Peptide,P. aeruginosa 7,32 µg/mL
same,Peptide MIC Alone,"P. aeruginosa 7, Piperacillin section",>128 µg/mL
same,Ciprofloxacin MIC + Peptide,P. aeruginosa 23,0.5 µg/mL
same,Peptide MIC + Ciprofloxacin,P. aeruginosa 23,2 µg/mL
same,Peptide MIC + Piperacillin,P. aeruginosa 23,32 µg/mL
same,Piperacillin MIC + Peptide,P. aeruginosa 23,4 µg/mL
same,Peptide MIC Alone,"P. aeruginosa 23, Piperacillin section",>64 µg/mL
same,Ciprofloxacin MIC + Peptide,P. aeruginosa 24,0.5 µg/mL
same,Peptide MIC + Ciprofloxacin,P. aeruginosa 24,2 µg/mL
same,Peptide MIC + Piperacillin,P. aeruginosa 28,32 µg/mL
same,Piperacillin MIC + Peptide,P. aeruginosa 28,16 µg/mL
same,Peptide MIC Alone,"P. aeruginosa 28, Piperacillin section",>128 µg/mL
same,Peptide MIC + Piperacillin,P. aeruginosa 41,4 µg/mL
same,Piperacillin MIC + Peptide,P. aeruginosa 41,32 µg/mL
same,Peptide MIC Alone,"P. aeruginosa 41, Piperacillin section",128 µg/mL
same,Mupirocin MIC + Peptide,P. aeruginosa PA2,10 µg/mL
same,Peptide MIC + Mupirocin,P. aeruginosa PA2,64 µg/mL
same,Peptide MIC Alone,"P. aeruginosa PA2, Mupirocin section",128 µg/mL
same,Mupirocin MIC + Peptide,P. aeruginosa PA4,100 µg/mL
same,Peptide MIC + Mupirocin,P. aeruginosa PA4,32 µg/mL
